Data set [1] concerns ceramide-activated protein phosphatase (CAPP). The experiment in a line: CAPP serine/threonine phosphatase activity in vitro. The conditions noted are these: myelin basic protein phosphorylated by protein kinase A as substrate. The format is biochemical.
For data set [2], the system named is neutral sphingomyelinase. The experiment in a line: Neutral sphingomyelinase activity in vitro. It is filed as biochemical. The source says:
(§1) In addition to ceramidase, inhibition of cerebroside synthase and sphingomyelin synthase or stimulation of sphingomyelinase or cerebrosidase could result in elevations in endogenous ceramide levels. Therefore, the effects of D- and L-e-MAPP were examined on these enzyme activities in vitro and in cells.

Data set [3] can be described thus: Cellular metabolism of tritium-labeled compounds (TLC). The format is cell-based, human. The conditions noted are these: human, hl-60 cells; HL-60, 5 μM, by 24 h; read-out: fraction of compound taken up that was metabolized. How it is done: (§2) Metabolism studies. Lipids from cells treated with ^3 H-labeled compounds were extracted (Bligh & Dyer method), dried, resuspended in chloroform/methnol (10:1, v/v), and subjected to separation by TLC in chloroform/methanol (4:1, v/v). Spots containing radioactive compounds were scraped and radioactivity was measured using a scintillation counter.
(§3) Next, the metabolism of D- and L-e-MAPP was evaluated. To this end, organic lipids were extracted from cells treated with 5 μM D- or L-e-MAPP at the indicated time points (FIG. 5D), and lipids were resolved on TLC. […] On the other hand, L-e-MAPP underwent significant metabolism in a time-dependent fashion such that by 24 h, more than 70% of the L-e-MAPP taken up by cells was metabolized (FIG. 5, D and E). Two major breakdown products of L-e-MAPP were resolved by TLC. One metabolite co-migrated with […] and not with other neutral or polar lipids. The other metabolite (upper spot in FIG. 5D) comigrated with triacylglycerol.

Data set [4] concerns HL-60 cells. Nature of the data set: Cell cycle analysis by propidium iodide flow cytometry. The format is cell-based, human. The conditions noted are these: HL-60, 5 μM, 48 h. As to the method:
(§4) Proliferation and cell cycle studies. HL-60 human myelocytic leukemia cells (obtained from the American Type Culture Collection) were grown in RPMI 1640 medium containing 10 fetal calf serum at 37° C. in 5% CO2 incubator. For proliferation and cell cycle studies, cells were resuspended at a density of 2×10^5 cells/ml in serum-free media containing insulin (5 mg/liter) and transferrin (5 mg/liter) and sodium selenite (5 μg/liter) for 2-4 h. Cells were then treated with the indicated compounds. Ethanol concentration was always maintained at less than 0.1%. Cell proliferation was determined by counting cells using a hemacytometer, cell viability was evaluated by trypan blue dye exclusion, and cell cycle analysis was determined by propidium iodide flow cytometry as described (Chao et al, J. Biol. Chem. 267:23459 (1992)).

Data set [5] deals with HL-60 human myelocytic leukemia cells. The experiment in a line: HL-60 cell proliferation (cell counting). The format is cell-based. The conditions noted are these: for effect on cell growth: HL-60 cells, 5 μM, time course. How it is done: as §4
In structure-function analysis of ceramide-mediated growth suppression using amides of phenylaminoalcohols, D- and L-erythro-MAPP were employed. In these studies, HL-60 cells were treated with 5 μM of either D-e-MAPP or L-e-MAPP, and growth was determined at the indicated time points (FIG. 2A).
Studies were conducted examining the uptake and metabolism of D- and L-MAPP. In the first set of studies, the effect of duration of exposure of HL-60 cells to D-e-MAPP on the bioactivity of the molecule was determined. D-e-MAPP added to cells could be washed off by repeated sedimentation and washing of cells. Thus, after five cycles of washing, less than 10% of D-MAPP remained associated with the cell pellet-compared to unwashed cells (FIG. 5A).

In data set [6] the target is T1, acidic sphingomyelinase (Homo sapiens, UniProt P17405).
T1 sequence (P17405 47-631): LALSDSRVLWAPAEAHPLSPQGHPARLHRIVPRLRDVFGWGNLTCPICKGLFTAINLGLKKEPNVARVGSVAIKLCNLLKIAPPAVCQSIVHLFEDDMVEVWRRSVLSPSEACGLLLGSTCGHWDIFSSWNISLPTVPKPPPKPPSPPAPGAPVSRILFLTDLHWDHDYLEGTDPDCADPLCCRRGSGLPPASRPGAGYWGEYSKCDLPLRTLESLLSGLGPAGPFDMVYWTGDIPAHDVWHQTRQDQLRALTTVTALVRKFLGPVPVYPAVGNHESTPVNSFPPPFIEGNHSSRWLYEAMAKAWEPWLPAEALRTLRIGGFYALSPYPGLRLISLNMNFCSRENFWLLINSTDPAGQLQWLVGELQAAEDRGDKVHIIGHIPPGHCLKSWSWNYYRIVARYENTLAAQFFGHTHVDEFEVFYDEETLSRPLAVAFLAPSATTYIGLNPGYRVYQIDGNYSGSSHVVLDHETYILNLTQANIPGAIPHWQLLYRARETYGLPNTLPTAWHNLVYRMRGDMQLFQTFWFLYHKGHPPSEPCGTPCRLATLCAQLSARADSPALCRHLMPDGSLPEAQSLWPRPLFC
The experiment in a line: Acidic sphingomyelinase activity in vitro. It is filed as biochemical.
Description: as §1

In data set [7] the test system is HL-60 cells. The experiment in a line: Cellular metabolism of tritium-labeled compounds (TLC). The conditions noted are these: HL-60, 5 μM, TLC. It is filed as cell-based, human. How it is done:
as §2, §3

In data set [8] the test system is ceramidase in HL-60 cells. The experiment in a line: Inhibition of L-e-MAPP metabolism in cells (ceramidase activity in cells). The format is cell-based, human. As to the method:
as §2
Since D-e-MAPP inhibits ceramidase in cells, then it should also protect L-e-MAPP from metabolic degradation. Therefore, the effects of D-e-MAPP on metabolism of L-e-MAPP were examined. HL-60 cells were treated with tritium-labeled L-e-MAPP (3 μM), and the metabolism of L-e-MAPP was evaluated in the presence and absence of 3 μM D-e-MAPP. […] The effects of D-e-MAPP on metabolism of L-e-MAPP were dose dependent with most of the inhibition occurring at levels of D-e-MAPP of 1-3 μM (FIG. 8B).

In data set [9] the test system is endogenous ceramide levels in HL-60 cells. The experiment in a line: cells. The conditions noted are these: Homo sapiens, HL-60, 24 h, read-out: endogenous ceramide level relative to baseline.
Description: (§5) Ceramide and diacylglycerol levels were measured on total liquid extracts using the diacylglycerol kinase assay (Jayadev et al, J. Biol. Chem. 270:2047 (1995)).
(§6) Therefore, HL-60 cells were treated with 5 μM D-e-MAPP, ethanol vehicle or L-e-MAPP for 0-24 h. At the indicated time points (FIG. 4A), total lipids were extracted and endogenous ceramide levels were measured by the Escherichia coli diacylglycerol kinase assay.
(§7) The upper spot of ceramide phosphate co-migrated with synthetic D-erythro-C18 dihydroceramide phosphate whereas the lower spot co-migrated with D-erythro-C18 ceramide phosphate.
Data set [10] shares this test system. The conditions noted are these: HL-60, TLC of ceramide phosphates.
Description: as §5, §6, §7

Molecules are shown by their SMILES.

Regarding `CCCCCCCCCCCCCC(=O)N[C@@H](C)[C@H](O)c1ccccc1` [L-e-MAPP, L-erythro-2-(N-myristolyamino)-1-phenyl-1-propanol], the “activation of CAPP in vitro” value in data set [1] is “neither D-e-MAPP nor L-e-MAPP activated CAPP”. For the same molecule, in [2], the “effect on activity of neutral sphingomyelinase” value is on record as “neither D- nor L-e-MAPP modulated the activity of neutral or acidic sphingomyelinases”. Besides, the metabolised at 24 h, 5 µM in [3] was greater than 70%. The “effect on cell cycle progression” value in data set [4] is listed as “largely without effect”. Also, in [5], the “effect on cell growth” value is “largely inactive”. In addition, in data set [6], the “effect on activity of acidic sphingomyelinase” value was “neither D- nor L-e-MAPP modulated the activity of neutral or acidic sphingomyelinases”.

For the molecule `CCCCCCCCCCCCCC(=O)N[C@H](C)[C@@H](O)c1ccccc1` [D-e-MAPP, D-erythro-2-(N-myristolyamino)-1-phenyl-1-propanol], the “activation of CAPP in vitro” value in data set [1] is “neither D-e-MAPP nor L-e-MAPP activated CAPP”. Further, the “effect on activity of neutral sphingomyelinase” value in data set [2] is reported as “neither D- nor L-e-MAPP modulated the activity of neutral or acidic sphingomyelinases”. Also, in data set [7], the metabolism in cells entry was “showed little metabolism and remained intact”. Besides, the “population of cells in G2/M phase” value in [4] (from 10% untreated) is reported as 3%. In addition, the “population of cells in S phase” value in data set [4] (from 30% untreated) amounted to 24%. The “population of cells in G0/G1 phase” value in data set [4] (from 60% untreated) is 73%. Also, the “effect on cell growth, exposure for only 15 min” value in [5] (HL-60, 5 μM, back-extracted with 5 washes after 15 min) is given as “did not affect cell growth”. In data set [5] (HL-60, 5 μM, compared to vehicle-treated cells), the “effect on cell growth, continuous exposure” value is recorded as “dramatic growth inhibition”. The “effect on cell growth” value in data set [5] is on record as “time dependent suppression of growth”. In addition, in data set [8] (HL-60, 3 μM tritium-labeled L-e-MAPP, 3 μM D-e-MAPP), the “effect on breakdown of L-e-MAPP in cells” value was “prevented the breakdown of L-e-MAPP”. The “levels at which most of the inhibition of L-e-MAPP metabolism occurs” value in [8] (HL-60, dose dependence) was in the range of 1 to 3 µM. In data set [9], the fold induction at 5 µM was roughly 3. Moreover, in data set [10], the “selectivity of increase, ceramide versus dihydroceramide” value is on record as “selective increase in ceramide but not dihydroceramide levels”. For the same molecule, the “effect on activity of acidic sphingomyelinase” value in [6] is on record as “neither D- nor L-e-MAPP modulated the activity of neutral or acidic sphingomyelinases”.
